These results are taken from patent US20230340018A1, “MPRO CYSTEINE PROTEASE INHIBITORS” (ANIXA BIOSCIENCES, INC., priority 2020, published 2023).

The nature of one series: in vitro. The note with it: human.
Series [1] addresses SARS-CoV-2 main protease Mpro (Severe acute respiratory syndrome coronavirus 2, UniProt P0DTD1). Nature of the series: FRET-based Mpro enzyme activity assay. It counts as biochemical. Particulars: recombinant Mpro, 30 min pre-incubation, 0 - 200 µM; read-out: Mpro enzyme inhibition IC50.

In the series “in vitro”, `CC(C)C[C@H](NC(=O)c1nc2ccccc2[nH]1)C(=O)N[C@@H](Cc1ccc[nH]c1=O)C(=O)C(=O)NCc1ccccc1` [Compound 23, N-((S)-1-(((S)-4-(benzylamino)-3,4-dioxo-1-(2-oxo-1,2-dihydropyridin-3-yl)butan-2-yl)amino)-4-methyl-1-oxopentan-2-yl)-1H-benzo[d]imidazole-2-carboxamide] returned a CC50 at 72 h greater than 100 µM. Besides, the IC50 (in general, the midpoint of a concentration-inhibition curve) in series [1] is no more than 2 µM.
For the compound `COc1cccc2[nH]c(C(=O)N[C@@H](CC3CC3)C(=O)N[C@@H](CN3CCNC3=O)C(=O)C(=O)NCC3CC3)cc12` [Compound 12, N-((S)-3-Cyclopropyl-1-(((S)-4-((cyclopropylmethyl)amino)-3,4-dioxo-1-(2-oxoimidazolidin-1-yl)butan-2-yl)amino)-1-oxopropan-2-yl)-4-methoxy-1H-indole-2-carboxamide], the CC50 at 72 h in “in vitro” was greater than 100 µM. In addition, the IC50 in series [1] is no more than 2 µM.
Take `COc1cccc2[nH]c(C(=O)N[C@H](C(=O)N[C@@H](CN3CCNC3=O)C(=O)C(=O)Nc3ccccc3)C3CCCCC3)cc12` [Compound 25, N-((S)-1-cyclohexyl-2-(((S)-3,4-dioxo-1-(2-oxoimidazolidin-1-yl)-4-(phenylamino)butan-2-yl)amino)-2-oxoethyl)-4-methoxy-1H-indole-2-carboxamide]: in the series “in vitro”, the CC50 at 72 h was greater than 100 µM. In series [1], the IC50 is no more than 2 µM.
With `COc1cccc2[nH]c(C(=O)N[C@@H](CC(C)C)C(=O)N[C@@H](CN3CCNC3=O)C(=O)C(=O)NCC3CC3)cc12` [Compound 10, N-((S)-1-(((S)-4-((Cyclopropylmethyl)Amino)-3,4-Dioxo-1-(2-Oxoimidazolidin-1-yl)Butan-2-yl)Amino)-4-Methyl-1-Oxopentan-2-yl)-4-Methoxy-1H-Indole-2-Carboxamide], in “in vitro”, the CC50 at 72 h was greater than 100 µM. In addition, the IC50 in series [1] was no more than 2 µM.
The corresponding values for `CC(C)C[C@H](NC(=O)c1cc2ccccc2[nH]1)C(=O)N[C@@H](CN1CCNC1=O)C(O)C(=O)NCC1CC1` (stereo partly drawn) [Compound 26, N-((2S)-1-(((2S)-4-((cyclopropylmethyl)amino)-3-hydroxy-4-oxo-1-(2-oxoimidazolidin-1-yl)butan-2-yl)amino)-4-methyl-1-oxopentan-2-yl)-1H-indole-2-carboxamide] are greater than 100 µM and no more than 2 µM.
Compound `CC(C)C[C@H](NC(=O)c1cc2ccccc2[nH]1)C(=O)N[C@@H](Cc1ccc[nH]c1=O)C(=O)C(=O)NCc1ccccc1` [Compound 22, N-((S)-1-(((S)-4-(Benzylamino)-3,4-Dioxo-1-(2-Oxo-1,2-Dihydropyridin-3-yl)Butan-2-yl)Amino)-4-Methyl-1-Oxopentan-2-yl)-1H-Indole-2-Carboxamide] returned a CC50 at 72 h in “in vitro” greater than 100 µM. Besides, in series [1], the IC50 is no more than 2 µM.
The corresponding values for `CC(C)C[C@H](NC(=O)c1cc2ccccc2[nH]1)C(=O)N[C@@H](CN1CCNC1=O)C(=O)C(=O)NCC1CC1` [Compound 24, N-((S)-1-(((S)-4-((cyclopropylmethyl)amino)-3,4-dioxo-1-(2-oxoimidazolidin-1-yl)butan-2-yl)amino)-4-methyl-1-oxopentan-2-yl)-1H-indole-2-carboxamide] are greater than 100 µM and 2 to 20 µM.
For `CC(C)C[C@H](NC(=O)OC(C)(C)C)C(=O)N[C@@H](Cc1ccc[nH]c1=O)C(=O)C(=O)NCc1ccccc1` [Compound 27, tert-butyl ((S)-1-(((S)-4-(benzylamino)-3,4-dioxo-1-(2-oxo-1,2-dihydropyridin-3-yl)butan-2-yl)amino)-4-methyl-1-oxopentan-2-yl)carbamate], the CC50 at 72 h in the series “in vitro” was greater than 100 µM. For the same compound, in series [1], the IC50 was in the range of 2 to 20 µM.
